Measured values as given in paper PMC2174006 (The Journal of Cell Biology, 2002).

Target: T1, Rab32 (Homo sapiens, UniProt Q13637)
T1 sequence (Q13637 1-225): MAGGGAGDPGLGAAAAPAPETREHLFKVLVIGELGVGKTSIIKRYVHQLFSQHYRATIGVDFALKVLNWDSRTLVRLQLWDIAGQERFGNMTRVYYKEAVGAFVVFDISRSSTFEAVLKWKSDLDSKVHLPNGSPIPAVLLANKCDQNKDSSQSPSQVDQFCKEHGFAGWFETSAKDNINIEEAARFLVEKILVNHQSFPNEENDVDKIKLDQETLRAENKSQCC
Assay: radiolabelled nucleotide dissociation
Format: binding
Settings: labelled compound ([3H]GDP); pH 7.5, 50 mM Tris-HCl, high magnesium; GST fusion

## Nc1nc2c(ncn2[C@@H]2O[C@H](COP(=O)(O)OP(=O)(O)O)[C@@H](O)[C@H]2O)c(=O)[nH]1 [GDP]
  t 1/2 (dissociation): 7.5 min
